Source: PubChem BioAssay (NCI)
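Dose response: 5 concentrations. Exposure: 48 h. Format: 96-well plates. Endpoint: linear interpolation; highest concentration if not reached. GI50 marks 50% less growth. TGI marks complete inhibition of growth.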

Key:
Assay in all cases: inhibition of tumour cell growth, NCI panel, 48 h
PC-3 prostate = test system: PC-3 prostate
CCRF-CEM leukemia = test system: CCRF-CEM leukemia
SW-620 colon = test system: SW-620 colon
NCI-H522 lung = test system: NCI-H522 lung
SNB-75 CNS = test system: SNB-75 CNS
NCI-H226 lung = test system: NCI-H226 lung
HOP-92 NSCLC = test system: HOP-92 NSCLC
SK-OV-3 ovarian = test system: SK-OV-3 ovarian
HS 578T breast = test system: HS 578T breast
OVCAR-8 ovarian = test system: OVCAR-8 ovarian
DU-145 prostate = test system: DU-145 prostate
CAKI-1 renal = test system: CAKI-1 renal
OVCAR-5 ovarian = test system: OVCAR-5 ovarian
UO-31 renal = test system: UO-31 renal
NCI/ADR-RES ovarian = test system: NCI/ADR-RES ovarian
UACC-62 melanoma = test system: UACC-62 melanoma
U251 CNS = test system: U251 CNS
HOP-62 NSCLC = test system: HOP-62 NSCLC
MDA-MB-435 = test system: MDA-MB-435
RPMI-8226 leukemia = test system: RPMI-8226 leukemia
IGROV1 ovarian = test system: IGROV1 ovarian
SK-MEL-28 melanoma = test system: SK-MEL-28 melanoma
HCT-15 colon = test system: HCT-15 colon
M14 melanoma = test system: M14 melanoma
MCF7 breast = test system: MCF7 breast
COLO 205 colon = test system: COLO 205 colon
A498 renal = test system: A498 renal
SN12C renal = test system: SN12C renal

c1n[nH]cc1-c1nc2ccc3[nH]ncc3c2c2c1CCCC2
GI50 (PC-3 prostate): 2370 nM
TGI (PC-3 prostate): 11600 nM
GI50 (CCRF-CEM leukemia): 2420 nM
TGI (CCRF-CEM leukemia): > 100000 nM
GI50 (SW-620 colon): 924 nM
TGI (SW-620 colon): 6540 nM
GI50 (NCI-H522 lung): 835 nM
TGI (NCI-H522 lung): 2770 nM
GI50 (SNB-75 CNS): 1310 nM
TGI (SNB-75 CNS): 2880 nM
GI50 (NCI-H226 lung): 1280 nM
TGI (NCI-H226 lung): 3650 nM
GI50 (HOP-92 NSCLC): 2240 nM
TGI (HOP-92 NSCLC): 6310 nM
GI50 (SK-OV-3 ovarian): 680 nM
TGI (SK-OV-3 ovarian): 11600 nM
GI50 (HS 578T breast): 914 nM
TGI (HS 578T breast): 4020 nM
GI50 (OVCAR-8 ovarian): 1640 nM
TGI (OVCAR-8 ovarian): 4380 nM
GI50 (DU-145 prostate): 1710 nM
TGI (DU-145 prostate): 11600 nM
GI50 (CAKI-1 renal): 511 nM
TGI (CAKI-1 renal): 10400 nM
GI50 (OVCAR-5 ovarian): 2710 nM
TGI (OVCAR-5 ovarian): 17900 nM
GI50 (UO-31 renal): 1540 nM
TGI (UO-31 renal): 7650 nM
GI50 (NCI/ADR-RES ovarian): 2100 nM
TGI (NCI/ADR-RES ovarian): 6050 nM
GI50 (UACC-62 melanoma): 1060 nM
TGI (UACC-62 melanoma): 3250 nM
GI50 (U251 CNS): 2060 nM
TGI (U251 CNS): 12100 nM
GI50 (HOP-62 NSCLC): 1750 nM
TGI (HOP-62 NSCLC): 7680 nM
GI50 (MDA-MB-435): 1400 nM
TGI (MDA-MB-435): 4380 nM
GI50 (RPMI-8226 leukemia): 1510 nM
TGI (RPMI-8226 leukemia): 4940 nM
GI50 (IGROV1 ovarian): 1350 nM
TGI (IGROV1 ovarian): 8150 nM
GI50 (SK-MEL-28 melanoma): 1590 nM
TGI (SK-MEL-28 melanoma): 4510 nM
GI50 (HCT-15 colon): 1380 nM
TGI (HCT-15 colon): 14000 nM
GI50 (M14 melanoma): 1110 nM
TGI (M14 melanoma): 3360 nM
GI50 (MCF7 breast): 2420 nM
TGI (MCF7 breast): 11700 nM
GI50 (COLO 205 colon): 1310 nM
TGI (COLO 205 colon): 4470 nM
GI50 (A498 renal): 405 nM
TGI (A498 renal): 1920 nM
GI50 (SN12C renal): 1840 nM
TGI (SN12C renal): 7540 nM
